Test results: publication PMC10059066, “Probing Serum Albumins and Cyclodextrins as Binders of the Mycotoxin Metabolites Alternariol-3-Glucoside, Alternariol-9-Monomethylether-3-Glucoside, and Zearalenone-14-Glucuronide” (Metabolites, 2023)
“And” between values parts separate entries of the source, which are not always exact repeats. Equal entries are not always repeated.

How the values were obtained:
[1] = Extraction of mycotoxins from aqueous solutions with β-cyclodextrin bead polymer; settings: for decrease in mycotoxin concentration (extraction) by BBP: BBP 10 mg/mL, mycotoxin 5 μM, sodium acetate buffer pH 5.0, 40 min, 25 °C; for removal of mycotoxin by BBP at pH 10.0 compared with pH 5.0: sodium borate pH 10.0 vs sodium acetate pH 5.0, mycotoxin 5 μM
Experimental: (§1) The extraction of mycotoxins by insoluble (but water-swellable) CD bead polymers was tested in 0.05 M sodium acetate (pH 5.0) and 0.05 M sodium borate (pH 10.0) buffers. AG, AMG, alternariol, Z14Glr, and zearalenone solutions (5 μM each) were incubated with increasing amounts (0–10 mg/mL) of BBP or GBP in a thermomixer for 40 min at 1000 rpm and 25 °C. After pulse centrifugation (5000× g, 3 s), the mycotoxin contents of the supernatants were analyzed by HPLC-FLD (see Section 2.5).
(§2) The quantitative analyses of the examined mycotoxins were performed with a Jasco HPLC system (Tokyo, Japan) equipped with a binary pump (PU-4180), an autosampler (AS 4050), and a fluorescence detector (FP-920). Chromatograms were evaluated using the ChromNAV2 software (Jasco). Alternariol and zearalenone were analyzed as described previously. During the validation of our new HPLC-FLD methods, the linearity (LIN), limit of detection (LOD), limit of quantification (LOQ), and intraday repeatability (IDR) were determined as described previously.
(§3) AG and AMG were quantified using the following method: Isocratic elution of the samples (20 μL) was performed at room temperature with a 1 mL/min flow rate, employing phosphoric acid (1 mM) and acetonitrile (65:35 v/v%) as the mobile phase, where a Security Guard (C18, 4.0 × 3.0 mm; Phenomenex, Torrance, CA, US) precolumn was linked to a Kinetex EVO C18 (250 × 4.6 mm, 5 μm; Phenomenex) analytical column. Chromatograms were recorded, applying 335 nm and 455 nm excitation and emission wavelengths, respectively. The method validation parameters were as follows: AG (LIN: 0.2–5.0 μM, R^2 = 0.999; LOD = 0.05 μM; LOQ = 0.18 μM; IDR = 1.3%, n = 7); AMG (LIN: 0.2–5.0 μM, R^2 = 0.997; LOD = 0.15 μM; LOQ = 0.50 μM; IDR = 2.3%, n = 7).
(§4) Z14Glr was quantified using the following method: Isocratic elution of the samples (20 μL) was performed at room temperature with a 1 mL/min flow rate, employing 1% acetic acid solution and acetonitrile (65:35 v/v%) as the mobile phase, where a Security Guard (C8, 4.0 × 3.0 mm; Phenomenex) precolumn was linked to a Mediterranea See8 (C8, 150 × 4.6 mm, 5 μm; Teknokroma, Barcelona, Spain) analytical column. Chromatograms were recorded, applying 315 nm and 465 nm excitation and emission wavelengths, respectively. The method validation parameters for the HPLC analysis of Z14Glr were also determined (LIN: 0.2–5.0 μM, R^2 = 0.999; LOD = 0.15 μM; LOQ = 0.50 μM; IDR = 2.0%, n = 7).

[2] = biological target: T1, human serum albumin (HSA) (Homo sapiens, UniProt P02768); experiment: Fluorescence quenching of human serum albumin by mycotoxins; format: binding
T1 construct: purchased Merck (Darmstadt, Germany)
Experimental: (§5) Fluorescence emission spectra were collected at 25 °C using a Hitachi F-4500 fluorescence spectrophotometer (Tokyo, Japan). The quenching effects of AG, AMG, and Z14Glr (each 0–5 μM) on the emission signals of albumins (2 μM each) were examined at 340 nm in phosphate-buffered saline (PBS, pH 7.4). UV–vis measurements were performed at 25 °C in PBS, employing a Jasco V730 UV–vis spectrophotometer (Tokyo, Japan). Thereafter, we corrected the inner-filter effects of the mycotoxins, as previously reported. Stern–Volmer quenching constants (KSV; L/mol) were calculated with the graphical application of the Stern–Volmer equation [11, 29]:(1) I0/I=1+KSV×Q where I0 and I are the emission intensities of the protein without and with the quencher, respectively, while [Q] is the concentration (mol/L) of the quencher (mycotoxin). The binding constants (K; L/mol) of mycotoxin–albumin complexes were determined with nonlinear fitting, using the HyperQuad2006 software (version 3.1; Protonic Software GmbH, Hanau, Germany), as described previously.
(§6) The interaction of a ligand molecule with albumin usually induces a decrease in the emission signal of the protein [33]; therefore, fluorescence quenching studies were performed. In PBS (pH 7.4), increasing amounts of AG, AMG, and Z14Glr were added to standard concentrations of human (HSA), bovine (BSA), porcine (PSA), or rat (RSA) serum albumins, after which the emission spectra were recorded.
(§7) The KSV and K values of mycotoxin–albumin complexes were determined using the Stern–Volmer equation (Equation (1)) and the HyperQuad2006 software (see data in Table 1 and Table 2, respectively). […] The logKSV and logK values of the mycotoxin–albumin complexes were in good agreement (Table 1 and Table 2).

[3] = biological target: T2, bovine serum albumin (BSA) (Bos taurus, UniProt P02769); experiment: Fluorescence quenching of bovine serum albumin by mycotoxins; format: binding
T2 construct: purchased Merck (Darmstadt, Germany)
Experimental: as §5, §6, §7

[4] = biological target: T3, porcine serum albumin (PSA) (Sus scrofa, UniProt P08835); experiment: Fluorescence quenching of porcine serum albumin by mycotoxins; format: binding
T3 construct: purchased Merck (Darmstadt, Germany)
Experimental: as §5, §6, §7

rat serum albumin (RSA) [5] = biological target: T4, rat serum albumin (RSA) (Rattus norvegicus, UniProt P02770); experiment: Fluorescence quenching of rat serum albumin by mycotoxins; format: binding; settings: for RSA logKSV ± SEM (Stern–Volmer quenching constant): PBS pH 7.4, 25 °C, n = 3; for Kd: HyperQuad fitting, PBS pH 7.4, n = 3, read-out: RSA logK ± SEM (binding constant) (converted)
T4 construct: purchased Merck (Darmstadt, Germany)
Experimental: as §5, §6, §7

[6] = biological target: T1, human serum albumin (HSA); experiment: Ultracentrifugation study of mycotoxin-HSA binding
Experimental: To confirm the data calculated based on fluorescence quenching studies, ultracentrifugation experiments were also performed. With the proper conditions of ultracentrifugation, albumin (with the bound ligands) can be sedimented. The samples (final volume: 500 μL) contained AG, AMG, or Z14Glr (5 μM each) with HSA (60 or 180 μM) dissolved in PBS. Centrifugation (16 h, 170,000× g, 20 °C) was performed using 11 × 34 mm PC tubes (Beckman Coulter, Brea, CA, US) and a Beckman Coulter Optima MAX-XP tabletop ultracentrifuge (fixed-angle rotor). The unbound fractions of mycotoxins were determined in the protein-free supernatant by HPLC-FLD (see details in Section 2.5), as previously reported. (3) K=[LA]/L×[A] where [L], [A], and [LA] are the concentrations (mol/L) of the ligand (unbound), albumin (unbound), and the ligand–albumin complex, respectively.
Furthermore, to test the impact of environmental pH on the stability of mycotoxin–albumin complexes, the abovementioned experiments were also performed in 0.05 M sodium acetate (pH 5.0) and 0.05 M sodium borate (pH 8.5) buffers.
To confirm the binding constants determined in the quenching experiments, and to get insight into the interaction of Z14Glr with HSA, ultracentrifugation studies were also performed. In these investigations, albumins (with the ligands bound) were sedimented, and then the concentrations of the unbound mycotoxins were quantified from the supernatants.

[7] = Fluorescence spectroscopic study of mycotoxin-SBECD complex formation; format: binding; settings: for SBECD logK ± SEM (binding constant): Benesi–Hildebrand, 0.05 M sodium acetate pH 5.0, mycotoxin 1 μM, n = 3; for SBECD-induced increase in the emission signal of the mycotoxin: SBECD 0–10 mM, mycotoxin 1 μM, sodium acetate pH 5.0
Experimental: (§8) The impacts of SBECD (0–10 mM) and SGD (0–5 mM) on the emission signals of mycotoxins (1 μM each) were tested in sodium acetate buffer (0.05 M, pH 5.0). Mycotoxin–CD interactions were evaluated using the Benesi–Hildebrand equation [11, 31], assuming 1:1 stoichiometry of complex formation:(2) F0/F−F0=1/A+1/A×K×[CD] where K (L/mol) is the binding constant, F0 is the emission signal of the mycotoxin without the host molecules, F is the emission signal of the mycotoxin with CDs, A is a constant, and [CD] is the molar concentration (mol/L) of the host molecules.
(§9) Therefore, CD-induced elevation in the fluorescence emission intensities of mycotoxins was examined.
(§10) Based on the emission signals at 455 nm, the binding constants of ligand–CD complexes were calculated using the Benesi–Hildebrand equation (Equation (2)). Background corrections were performed in each experiment. […] Glucose and glucuronic acid are bulky, hydrophilic molecules; therefore, it is reasonable to hypothesize that these substituents make the inclusion of AG, AMG, and Z14Glr by the apolar CD cavity difficult.

[8] = Fluorescence spectroscopic study of mycotoxin-SGD complex formation; format: binding; settings: for SGD-induced increase in the emission signal of the mycotoxin: SGD 0–5 mM, mycotoxin 1 μM, sodium acetate pH 5.0
Experimental: as §8, §9, §10

[9] = Extraction of mycotoxins from aqueous solutions with γ-cyclodextrin bead polymer; settings: GBP 0–10 mg/mL, mycotoxin 5 μM, sodium acetate buffer pH 5.0
Experimental: as §1, §2
as §3, with “The method validation parameters were as follows: AG (LIN: 0.2–5.0 μM, R^2 = 0.999; LOD = 0.05 μM; LOQ = 0.18 μM; IDR = 1.3%, n = 7); AMG (LIN: 0.2–5.0 μM, R^2 = 0.997; LOD = 0.15 μM; LOQ = 0.50 μM; IDR = 2.3%, n = 7).” left out
as §4, with “The method validation parameters for the HPLC analysis of Z14Glr were also determined (LIN: 0.2–5.0 μM, R^2 = 0.999; LOD = 0.15 μM; LOQ = 0.50 μM; IDR = 2.0%, n = 7).” left out

[10] = system: serum albumins (HSA, BSA, PSA, RSA); experiment: Fluorescence quenching, summary over the tested albumins; format: binding, human, bovine, porcine, rat; settings: PBS pH 7.4, approximate over the albumins tested
Experimental: as §5, §7

rat serum albumin (RSA) [11] = biological target: T4, rat serum albumin (RSA); experiment: Ultracentrifugation study of Z14Glr-RSA binding; settings: PBS pH 7.4, read-out: logK of the Z14Glr–RSA complex (converted)
[12] = PBS pH 7.4, 25 °C, albumin 2 μM, mycotoxin 0–5 μM, n = 3
[13] = 0.05 M sodium acetate pH 5.0, mycotoxin 5 μM, n = 3, read-out: HSA pH 5.0 logK ± SEM (binding constant) (converted)
[14] = 0.05 M sodium borate pH 8.5, mycotoxin 5 μM, n = 3, read-out: HSA pH 8.5 logK ± SEM (binding constant) (converted)
[15] = PBS pH 7.4, mycotoxin 5 μM, n = 3, read-out: HSA pH 7.4 logK ± SEM (binding constant) (converted)
[16] = mycotoxin 0–5 μM, albumin 2 μM, PBS pH 7.4

T4 sequence (P02770 25-608): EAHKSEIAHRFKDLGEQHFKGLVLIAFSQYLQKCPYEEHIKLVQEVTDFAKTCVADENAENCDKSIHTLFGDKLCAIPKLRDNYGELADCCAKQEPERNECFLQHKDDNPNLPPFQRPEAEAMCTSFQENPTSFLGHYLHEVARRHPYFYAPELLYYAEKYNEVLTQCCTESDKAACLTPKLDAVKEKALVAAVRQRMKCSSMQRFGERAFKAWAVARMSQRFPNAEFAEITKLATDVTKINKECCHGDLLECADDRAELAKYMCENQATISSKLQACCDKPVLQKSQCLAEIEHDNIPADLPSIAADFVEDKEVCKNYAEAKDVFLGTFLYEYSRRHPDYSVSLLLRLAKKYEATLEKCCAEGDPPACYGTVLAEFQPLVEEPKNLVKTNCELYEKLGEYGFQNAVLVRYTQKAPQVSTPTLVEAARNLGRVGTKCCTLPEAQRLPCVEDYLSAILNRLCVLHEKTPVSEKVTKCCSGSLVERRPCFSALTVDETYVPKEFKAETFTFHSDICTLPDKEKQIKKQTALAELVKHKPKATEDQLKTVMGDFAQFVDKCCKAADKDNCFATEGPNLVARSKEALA
T3 sequence (P08835 25-607): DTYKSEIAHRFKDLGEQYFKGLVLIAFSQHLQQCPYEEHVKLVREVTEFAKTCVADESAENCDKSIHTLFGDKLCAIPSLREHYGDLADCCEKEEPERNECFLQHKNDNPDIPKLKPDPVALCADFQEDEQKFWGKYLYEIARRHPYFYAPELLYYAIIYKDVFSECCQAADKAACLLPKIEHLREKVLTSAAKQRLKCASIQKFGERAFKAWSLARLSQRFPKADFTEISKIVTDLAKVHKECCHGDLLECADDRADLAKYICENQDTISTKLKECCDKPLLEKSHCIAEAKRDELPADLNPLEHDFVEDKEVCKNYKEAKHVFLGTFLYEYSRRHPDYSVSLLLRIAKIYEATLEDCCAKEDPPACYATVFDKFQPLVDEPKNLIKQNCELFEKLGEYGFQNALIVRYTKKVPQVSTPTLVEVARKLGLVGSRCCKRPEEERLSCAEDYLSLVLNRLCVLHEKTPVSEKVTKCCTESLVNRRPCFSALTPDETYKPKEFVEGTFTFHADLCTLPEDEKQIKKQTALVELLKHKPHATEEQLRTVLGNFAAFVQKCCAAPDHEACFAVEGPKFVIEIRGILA
T2 sequence (P02769 25-607): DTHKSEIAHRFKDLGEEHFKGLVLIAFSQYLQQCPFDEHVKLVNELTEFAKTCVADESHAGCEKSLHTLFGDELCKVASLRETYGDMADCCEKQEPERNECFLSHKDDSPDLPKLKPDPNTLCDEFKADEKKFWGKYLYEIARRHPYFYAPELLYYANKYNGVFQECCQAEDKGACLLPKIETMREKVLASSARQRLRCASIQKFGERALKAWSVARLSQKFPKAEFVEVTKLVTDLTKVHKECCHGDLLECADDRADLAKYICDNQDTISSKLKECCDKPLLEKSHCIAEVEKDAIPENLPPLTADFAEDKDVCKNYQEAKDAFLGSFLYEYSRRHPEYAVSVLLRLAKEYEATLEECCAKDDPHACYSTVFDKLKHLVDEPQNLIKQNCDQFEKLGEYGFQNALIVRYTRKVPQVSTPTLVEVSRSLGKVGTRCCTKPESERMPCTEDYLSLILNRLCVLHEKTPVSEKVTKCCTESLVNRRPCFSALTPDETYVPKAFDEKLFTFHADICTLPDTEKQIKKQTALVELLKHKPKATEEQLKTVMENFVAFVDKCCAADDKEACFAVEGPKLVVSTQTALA
T1 sequence (P02768 25-609): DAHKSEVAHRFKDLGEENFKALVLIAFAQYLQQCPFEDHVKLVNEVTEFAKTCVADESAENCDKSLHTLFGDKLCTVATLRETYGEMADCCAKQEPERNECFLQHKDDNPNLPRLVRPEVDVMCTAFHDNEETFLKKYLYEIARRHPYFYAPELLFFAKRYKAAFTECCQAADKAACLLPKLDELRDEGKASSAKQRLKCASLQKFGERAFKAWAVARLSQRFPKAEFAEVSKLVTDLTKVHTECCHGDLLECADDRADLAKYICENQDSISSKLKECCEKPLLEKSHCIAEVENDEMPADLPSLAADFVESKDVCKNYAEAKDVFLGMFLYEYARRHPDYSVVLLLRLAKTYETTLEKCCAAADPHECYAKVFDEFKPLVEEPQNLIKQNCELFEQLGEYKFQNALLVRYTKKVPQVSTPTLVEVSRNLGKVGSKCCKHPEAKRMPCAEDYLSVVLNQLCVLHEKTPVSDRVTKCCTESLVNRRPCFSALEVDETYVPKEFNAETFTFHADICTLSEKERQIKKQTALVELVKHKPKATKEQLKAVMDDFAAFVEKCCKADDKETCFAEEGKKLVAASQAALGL

| Compound | decrease in mycotoxin concentration (extraction) by BBP [1] | RSA logKSV ± SEM (Stern–Volmer quenching constant) (rat serum albumin (RSA) [5]; albumin 2 μM, mycotoxin 0–5 μM) [L/mol] | Kd (rat serum albumin (RSA) [5]; fluorescence quenching) [µM] | Kd [6, 13] [µM] | Kd [6, 14] [µM] | Kd [6, 15] | SBECD logK ± SEM (binding constant) [7] [L/mol] | SBECD-induced increase in the emission signal of the mycotoxin [7] | SGD-induced increase in the emission signal of the mycotoxin [8] | removal of mycotoxin by BBP at pH 10.0 compared with pH 5.0 [1] | removal of mycotoxin by GBP [9] | also measured |
| --- | --- | --- | --- | --- | --- | --- | --- | --- | --- | --- | --- | --- |
| C[C@H]1CCCC(=O)CCC/C=C/c2cc(O)cc(O)c2C(=O)O1 [zearalenone] | more than 95% |  |  |  |  |  |  |  |  |  |  |  |
| COc1cc(O)c2c(=O)oc3cc(OC4O[C@H](CO)[C@@H](O)[C@H](O)[C@H]4O)cc(C)c3c2c1 (some centres unmarked) [AMG, alternariol-9-monomethylether-3-glucoside] | ~75% | 4.62 ± 0.02 | 22.4 | 151 | 8.91 | 79.4 µM and 77.6 µM | 2.79 ± 0.08 | threefold elevation | approximately sevenfold increase | did not show relevant pH dependence | strongly reduced | HSA logKSV ± SEM (Stern–Volmer quenching constant) [2, 12]: 4.38 ± 0.05 L/mol; Kd ([2]; fluorescence quenching, HyperQuad fitting, PBS pH 7.4, n = 3, read-out: HSA logK ± SEM (binding constant) (converted)): 39.8 µM; BSA logKSV ± SEM (Stern–Volmer quenching constant) [3, 12]: 4.57 ± 0.02 L/mol; Kd ([3]; fluorescence quenching, HyperQuad fitting, PBS pH 7.4, n = 3, read-out: BSA logK ± SEM (binding constant) (converted)): 25.7 µM; PSA logKSV ± SEM (Stern–Volmer quenching constant) [4, 12]: 4.27 ± 0.03 L/mol; Kd ([4]; fluorescence quenching, HyperQuad fitting, PBS pH 7.4, n = 3, read-out: PSA logK ± SEM (binding constant) (converted)): 51.3 µM; affinity toward HSA at pH 8.5 relative to pH 5.0 [6]: approximately 17 fold; SGD logK ± SEM (binding constant) ([8]; Benesi–Hildebrand, 0.05 M sodium acetate pH 5.0, mycotoxin 1 μM, n = 3): 3.45 ± 0.04 L/mol; binding constant K of mycotoxin–albumin complexes [10]: ≈ 3 × 10^4 L/mol |
| C[C@H]1CCCC(=O)CCC/C=C/c2cc(O[C@@H]3OC(C(=O)O)[C@@H](O)C(O)C3O)cc(O)c2C(=O)O1 (stereo partly drawn) [Z14Glr, zearalenone-14-β,D-glucuronide] | 45% | 4.65 ± 0.05 | 19.5 | 25.7 | 58.9 | 63.1 µM and 60.3 µM | 2.32 ± 0.12 | ninefold | fivefold | significantly lower than at acidic pH | only moderate removal | effect on fluorescence emission spectrum of HSA [2, 16]: barely affected; effect on fluorescence emission spectrum of BSA [3, 16]: barely affected; effect on fluorescence emission spectrum of PSA [4, 16]: barely affected; binding constant K of Z14Glr-RSA complex (rat serum albumin (RSA) [5]; fluorescence quenching, PBS pH 7.4): ≈ 5 × 10^4 L/mol; effect on fluorescence emission intensity of RSA (rat serum albumin (RSA) [5]; [16]): considerably decreased; Kd (rat serum albumin (RSA) [11]): 13.5 µM |
